Assay results taken from BindingDB's records for doi:10.1016/j.bmcl.2014.08.029 (Rhône-Poulenc Rorer, 2014).

Experiment: Antagonist activity at CRTh2 receptor in human whole blood assessed as inhibition of PGD2-induced eosinophil shape change preincubated for 10 mins with PGD2 addition measured after 4 mins by forward scatter and side scatter analysis

| Compound | IC50 |
| --- | --- |
| CCN(Cc1cc(C(F)(F)F)ccc1-c1nn(CC(=O)O)c2cccc(C)c12)C(=O)C1CC1 | 108 nM |
| CCN(Cc1cc(C(F)(F)F)ccc1-c1nn(CC(=O)O)c2ccc(Cl)cc12)C(=O)C1CC1 | 23 nM |
| CCN(Cc1cc(C(F)(F)F)ccc1-c1nn(CC(=O)O)c2ccc(F)c(Cl)c12)C(=O)C1CC1 | 71 nM |
| CCN(Cc1cc(C(F)(F)F)ccc1-n1cc(CC(=O)O)c2ccc(C(F)F)nc21)C(=O)C1CC1 | 8 nM |
| CCN(Cc1cc(F)ccc1-n1cc(CC(=O)O)c2cccnc21)C(=O)C1CC1 | 11 nM |
| CCN(Cc1cc(F)ccc1-n1cc(CC(=O)O)c2ccc(C)nc21)C(=O)C1CC1 | 6.4 nM |
| CCN(Cc1ccccc1-n1cc(CC(=O)O)c2ccc(C)nc21)C(=O)C1CC1 | 9.5 nM |
| CCN(Cc1cc(Cl)ccc1-n1cc(CC(=O)O)c2ccc(C)nc21)C(=O)C1CC1 | 18 nM |
| CCN(Cc1cc(C)ccc1-n1cc(CC(=O)O)c2ccc(C)nc21)C(=O)C1CC1 | 13 nM |
| CCN(Cc1cc(OC(F)(F)F)ccc1-n1cc(CC(=O)O)c2ccc(C)nc21)C(=O)C1CC1 | 6.7 nM |
| CCN(Cc1cc(C(F)(F)F)ccc1-n1cc(CC(=O)O)c2ccc(C)nc21)C(=O)C1CCC1 | 8.5 nM |
| CCN(Cc1cc(C(F)(F)F)ccc1-n1cc(CC(=O)O)c2ccc(C)nc21)C(=O)CC1CC1 | 29 nM |
| CCN(Cc1cc(C(F)(F)F)ccc1-n1cc(CC(=O)O)c2ccc(C)nc21)C(=O)COC | 5 nM |
| CCN(Cc1cc(C(F)(F)F)ccc1-n1cc(CC(=O)O)c2ccc(C)nc21)C(=O)Cc1ccccc1 | 25 nM |
| CCN(Cc1cc(C(F)(F)F)ccc1-n1cc(CC(=O)O)c2ccc(C)nc21)C(=O)NCc1ccccc1 | 4.7 nM |
| Cc1ccc2c(CC(=O)O)cn(-c3ccc(C(F)(F)F)cc3CN(CC3CC3)C(=O)C3CC3)c2n1 | 22 nM |
| Cc1ccc2c(CC(=O)O)cn(-c3ccc(C(F)(F)F)cc3CN(CCOc3ccccc3)C(=O)C3CC3)c2n1 | 60 nM |

Next, values leading:

| IC50 | Compound |
| --- | --- |
| 34 nM | CCN(Cc1cc(C(F)(F)F)ccc1-n1cc(CC(=O)O)c2cccnc21)C(=O)C1CC1 |
| 160 nM | CCN(Cc1cc(C(F)(F)F)ccc1-c1nn(CC(=O)O)c2cccc(Cl)c12)C(=O)C1CC1 |
| 23 nM | CCN(Cc1cc(C(F)(F)F)ccc1-c1nn(CC(=O)O)c2cccc(F)c12)C(=O)C1CC1 |
| 27 nM | CCN(Cc1cc(C(F)(F)F)ccc1-c1nn(CC(=O)O)c2cccc(OC)c12)C(=O)C1CC1 |
| 103 nM | CCN(Cc1cc(C(F)(F)F)ccc1-c1nn(CC(=O)O)c2cccc(C#N)c12)C(=O)C1CC1 |
| 13 nM | CCN(Cc1cc(C(F)(F)F)ccc1-c1nn(CC(=O)O)c2ccc(C)cc12)C(=O)C1CC1 |
| 34 nM | CCN(Cc1cc(C(F)(F)F)ccc1-c1nn(CC(=O)O)c2ccc(F)cc12)C(=O)C1CC1 |
| 18 nM | CCN(Cc1cc(C(F)(F)F)ccc1-c1nn(CC(=O)O)c2ccc(Cl)c(F)c12)C(=O)C1CC1 |
| 7.8 nM | CCN(Cc1cc(C(F)(F)F)ccc1-n1cc(CC(=O)O)c2ccc(C)nc21)C(=O)C1CC1 |
| 17 nM | CCN(Cc1cc(F)ccc1-c1cn(CC(=O)O)c2ccc(C(F)(F)F)cc12)C(=O)C1CC1 |
| 10 nM | CCN(Cc1cc(C(F)(F)F)ccc1-c1cn(CC(=O)O)c2ccc(C)nc12)C(=O)C1CC1 |
| 82 nM | CCN(Cc1cc(C(F)(F)F)ccc1-c1cn(CC(=O)O)c2ccc(C(F)(F)F)nc12)C(=O)C1CC1 |
| 7.7 nM | CCN(Cc1ccccc1-n1cc(CC(=O)O)c2ccc(C(F)(F)F)cc21)C(=O)C1CC1 |
| 24 nM | CCN(Cc1cc(C(F)(F)F)ccc1-c1cc(CC(=O)O)n2ccc(C)nc12)C(=O)C1CC1 |
| 7.3 nM | CCN(Cc1cc(C(F)(F)F)ccc1-c1cc(CC(=O)O)c2ccc(C)nn12)C(=O)C1CC1 |
